Experimental data: article PMC10574094, “Discovery of a SHP2 Degrader with In Vivo Anti-Tumor Activity” (Molecules, 2023)

How the values were obtained:
SHP2 [1] = target: T1, SHP2 (Homo sapiens, UniProt Q06124); parameters: endogenous in cells; host or cells: KYSE-520; settings: cited from earlier work
T1 sequence (Q06124 1-593): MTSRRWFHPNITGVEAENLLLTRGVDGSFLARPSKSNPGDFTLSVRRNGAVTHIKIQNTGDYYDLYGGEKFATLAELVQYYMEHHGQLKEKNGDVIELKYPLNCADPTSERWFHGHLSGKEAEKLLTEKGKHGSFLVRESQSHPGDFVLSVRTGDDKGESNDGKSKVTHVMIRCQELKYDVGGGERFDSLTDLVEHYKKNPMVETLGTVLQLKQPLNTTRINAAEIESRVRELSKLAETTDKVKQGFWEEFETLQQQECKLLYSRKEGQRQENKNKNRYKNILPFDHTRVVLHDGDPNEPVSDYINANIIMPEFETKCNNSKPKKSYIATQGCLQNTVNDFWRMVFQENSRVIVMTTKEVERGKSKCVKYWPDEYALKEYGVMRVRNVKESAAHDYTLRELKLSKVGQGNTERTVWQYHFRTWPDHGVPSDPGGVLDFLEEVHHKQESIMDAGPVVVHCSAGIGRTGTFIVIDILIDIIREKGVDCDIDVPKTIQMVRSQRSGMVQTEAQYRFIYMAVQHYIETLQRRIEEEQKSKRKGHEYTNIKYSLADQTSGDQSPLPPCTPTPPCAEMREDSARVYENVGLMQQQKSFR

SHP2 [2] = target: T1, SHP2; assay: SHP2 degradation by Western blotting in HEK293 cells; assay type: cell-based; parameters: endogenous in cells; host or cells: HEK293; settings: HEK293, 16 h, 250 nM P9 in combination with 1 µM 3, 10 µM MG132, 1 µM MLN4924, 40 µM VHL-2 or 40 µM Lenalidomide
Protocol: HEK293, SKBR3, U2OS, MCF7 and A549 cells were grown in DMEM supplemented with 10% FBS, penicillin (50 units/mL), and streptomycin (50 μg/mL) in a 37 °C incubator containing 5% CO2. […] For western-blot analysis, protein samples were separated by SDS-PAGE, transferred to nitrocellulose membranes, and incubated overnight at 4 °C with corresponding primary antibodies diluted in 5% BSA in phosphate-buffered saline Tween (PBST). SuperSignal™ West Pico PLUS (PI34580; Thermo Scientific) was used to visualize the antibodies in the bioanalytical imaging system (Azure Biosystems c500). […] Anti-PTP1B (ab244207) antibody was purchased from Abcam. For colony formation assay, a total of approximately 200–500 cells were seeded to each well in a 12-well plate.
Supplemental Figures, Schemes, and Tables:
Figure S1. Western blots of degradation assay for PROTAC screening. (A) Degradation assay of
compo un ds i n Table 1 at 1 μM fo r 16 hours in H EK29 3 cells. (B) Degradation assay of compounds in Table
1 at 10 μM for 16 hours in HEK293 cells. (C) Degradation assay of compounds in Table 2 at 1 μM for 16

pERK1/2 = test system: pERK1/2; parameters: method as in PMID 32910655; settings: cited from earlier work

| Structure (SMILES) | IC50 (SHP2 [1]) [nM] | effect on P9-induced SHP2 degradation (SHP2 [2]) | IC50 (pERK1/2) [nM] |
| --- | --- | --- | --- |
| CCCCC1(CN)CCN(c2cnc(Sc3ccnc(N)c3Cl)c(N)n2)CC1 [compound 2] | 17 | – | – |
| CC1(CN)CCN(c2cnc(Sc3cccc(Cl)c3Cl)c(N)n2)CC1 [compound 3, reference compound] | – | prohibited P9-induced SHP2 degradation | 88 |
